# Legend:
# [1] = system: AML cell lines expressing functional p53 (MV4-11, OCI-AML2, OCI-AML3 and MOLM-13); experiment: Growth inhibition assay of AML cell lines expressing functional p53; type: cell-based, human; conditions: 48 hours; at between nanomolar to low micromolar levels
# Protocol: Growth inhibition of some AML cell lines expressing functional p53 (MV4-11, OCI-AML2, OCI-AML3 and MOLM-13) by PI polyamide conjugates at different concentrations was tested. Briefly, the cells were placed at a density of 1×10^5 cells/mL. Different concentrations of a PI polyamide conjugate (Chb-M′ or Chb-50) were added to media, and the cells were incubated for 48 hours (n=3). The number of viable cells when the PI polyamide conjugate was not added was used as a control (DMSO control). Cell viability was assessed by counting the viable cells with Cell Count Reagent SF (Nacalai tesque, Inc.) and Infinite (registered trademark) 200 PRO multimode reader (TECAN) according to the manufacturer's instructions.
# IL3, CSF2 and CSF2RB = experiment: qRT-PCR of RUNX1 target genes in MV4-11 cells; type: cell-based, human; conditions: 5 μM, 6 hours
# [2] = system: RUNX family (RUNX1, RUNX2 and RUNX3); experiment: Gene expression microarray in MV4-11 cells vs RUNX family knockdown; type: cell-based, human; conditions: 1 μM, 6 hours, top 500 up- and down-regulated genes
# MYL cells = experiment: PI-AnnexinV apoptosis staining, MYL cells; type: cell-based, human; conditions: 1.5 μM or 3 μM, 48 hours, dependent on concentration
# Protocol: In addition, 1.5 μM or 3 μM of Chb-M′ was administered to MYL cells. After 48 hours, the percentage of apoptosis was analyzed by PI-AnnexinV apoptosis staining. As a result, early apoptosis rates were increased dependent on the concentration of Chb-M′ (FIG. 26-4).
# MLL-ENL leukemia cells = experiment: Homing assay of MLL-ENL leukemia cells; type: in vivo, mouse; conditions: B6 mice, 320 μg/kg, 6 times over 2 weeks; 24 hours after cell injection
# [3] = system: Her2, p-Her2, SOS1, p-ERK, ERK, p-AKT, AKT; experiment: Western blotting of Her2 signalling in MKN45 gastric cancer cells; type: cell-based, human; conditions: 48 hours
# RERF-LC-MS = experiment: Cell viability, lung adenocarcinoma RERF-LC-MS; type: cell-based, human; conditions: RERF-LC-MS (EGFR wild-type p53-mutated), 48 hours
# c-kit = experiment: FACS of cell surface c-kit, LAD2 mast cells; type: cell-based, human; conditions: LAD2 (wild-type c-kit), 10 μM, 18-hour treatment; DMSO 68.3
# Source text: (§1) Mast cells cause symptoms or diseases such as allergic reaction by receptor-mediated activation. In addition, c-kit signal transduction enhances release of chemical mediators from stimulated mast cells. The effect of the RUNX inhibitor on human mast cells was examined. As human mast cells, a LAD2 cell line (expressing wild-type c-kit) and an HMC-1.2 cell line (expressing mutated c-kit) were used. The HMC-1.2 cell line has KIT D816V mutation and V560G mutation. Wild-type c-kit is a SCF receptor and the cell proliferation is dependent on SCF. Accordingly, regarding the LAD2 cell line, 50 ng/ml of SCF was administered and experiments were performed as described below. The HMC-1.2 cell line has a mutation in c-kit and the cell proliferation is independent of SCF. Accordingly, regarding the HMC-1.2 cell line, SCF was not administered and experiments were performed as described below. As the RUNX inhibitor, Chb-M′ was used. […]
# (§2) To the LAD2 cell line, 10 μM Chb-M′ was administered. After 3 hours and 18 hours, different antibodies were used for immunostaining of c-kit expressed on the cell surface, and the expression levels were analyzed by FACS (fluorescence-activated cell sorter). […] After 18 hours, different antibodies were used for immunostaining of c-kit expressed on the cell surface, and the expression levels were analyzed by FACS. […]
# [4] = system: c-kit (KIT D816V mutation and V560G mutation); experiment: FACS of cell surface c-kit, HMC-1.2 mast cells; type: cell-based, human; conditions: HMC-1.2 (mutated c-kit), 10 μM, 18-hour treatment; DMSO 113
# Source text: as §1, §2
# PC-3 cells [5] = experiment: PI-AnnexinV apoptosis staining, PC-3 cells; type: cell-based, human; conditions: PC-3, 3 μM, 48 hours and 72 hours
# Protocol: To PC-3 cells, 3 μM Chb-M′ was administered. After 48 hours and 72 hours, the percentage of apoptosis was analyzed by PI-AnnexinV apoptosis staining. As a control, DMSO was administered. As a result, the apoptosis rate was increased depending on the […] of Chb-M′ (FIG. 46).
# HMC-1.2 cell line = experiment: Cell proliferation of HMC-1.2 mast cells; type: cell-based, human
# p53 mutated cells = experiment: Concomitant use with p53 inducer MIRA-1 in p53 mutated cells; type: cell-based, human; conditions: compared with the PRIMA-1 experiments (synergistic inhibition)
# Protocol: We examined the effect of concomitant use of the conjugates and a p53 inducer. […] KG1a and HL60 cells are null for p53 (p53null cell lines). MV4-11NR, Kasumi-1 and THP-1 cells harbor mutated p53 (p53mut(+) cell lines).
# Further, the same experiments were performed using a p53 inducer MIRA-1 and the same results were obtained. Although the PI polyamide conjugates of the present invention may greatly reduce their potency in p53 mutated cells (cancer cells harboring mutated p53 or no p53), concomitant use with a p53 inducer enables suppression of such p53 mutated cells.
# PC-3 cells [6] = conditions: read-out: IC50 (μM) in PC-3 cells; PC-3 (p53null/PTEN del/androgen-independent), 48 hours
structure (smiles),measurement,setting,value
CN(C)CCCNC(=O)c1cc(NC(=O)c2cc(NC(=O)c3cc(NC(=O)c4cc(NC(=O)CCCNC(=O)c5nc(NC(=O)c6nc(NC(=O)c7cc(NC(=O)c8nc(NC(=O)CCNC(=O)CCCc9ccc(N(CCCl)CCCl)cc9)cn8C)cn7C)cn6C)cn5C)cn4C)cn3C)cn2C)cn1C [Chb-M′],Growth inhibition of AML cells,[1],highly effective
same,"Expressions of RUNX1 target genes (IL3, CSF2, and CSF2RB), mRNA","IL3, CSF2 and CSF2RB",effectively inhibited
same,Gene expression pattern vs cells with all RUNX family members knockdown,[2],significantly correlated
same,Early apoptosis rates,MYL cells,increased
same,Number of MLL-ENL cells in bone marrow vs control group,MLL-ENL leukemia cells,smaller
same,Number of leukemia cells in spleen,MLL-ENL leukemia cells,increased
same,Expression of SOS1 (protein),"[3]; MKN45, 0.1 μM, 1 μM, or 10 μM",suppressed
same,Phosphorylation of Her2,"[3]; MKN45, 0.1 μM, 1 μM, or 10 μM",suppressed
same,Expression of Her2 protein,"[3]; MKN45, 1 μM",suppressed
same,Phosphorylated forms of ERK protein and AKT protein,"[3]; MKN45, 1 μM",suppressed
same,Total amounts of ERK protein and AKT protein,"[3]; MKN45, 1 μM",not changed
same,IC50 compared with the EGFR inhibitor (gefitinib),RERF-LC-MS,lower IC50 values
same,MFI (mean fluorescent intensity) of surface c-kit,c-kit,48.8
same,MFI (mean fluorescent intensity) of surface c-kit,[4],100
same,Apoptosis rate,PC-3 cells [5],increased
same,Cell proliferation of mast cells having mutated c-kit,HMC-1.2 cell line,suppression
same,Effect of concomitant use with p53 inducer MIRA-1 on cell proliferation,p53 mutated cells,same results
same,IC50,PC-3 cells [6],0.62 µM
